In US20160272617A1, “SUBSTITUTED PHENYLALANINE DERIVATIVES” (BAYER PHARMA AKTIENGESELLSCHAFT, priority 2013, published 2016):
Structures can show the parent of a compound that is named as a salt.

Legend:
human and animal plasma = assay: Determination of anticoagulatory activity: activated partial thromboplastin time (aPTT) in plasma; conditions: concentration of test substance which brings about a 1.5-fold extension of the aPTT, plasma species not given
In short: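 Citrated plasma (1:9, 0.11 M citrate; 4000 g, 15 min) from human or animal blood incubated with test compound and cephalin/kaolin PTT reagent for 3 min at 37° C.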

human factor XIa = target: T1, human factor XIa (Homo sapiens, UniProt P03951); assay: Measurement of FXIa inhibition (fluorogenic peptide substrate Boc-Glu(OBzl)-Ala-Arg-AMC); format: biochemical; conditions: factor XIa from Kordia, 15 min preincubation, 30 min at 22° C., fluorescence
T1 construct: purchased Kordia
T1 sequence (P03951 388-625 limits assumed): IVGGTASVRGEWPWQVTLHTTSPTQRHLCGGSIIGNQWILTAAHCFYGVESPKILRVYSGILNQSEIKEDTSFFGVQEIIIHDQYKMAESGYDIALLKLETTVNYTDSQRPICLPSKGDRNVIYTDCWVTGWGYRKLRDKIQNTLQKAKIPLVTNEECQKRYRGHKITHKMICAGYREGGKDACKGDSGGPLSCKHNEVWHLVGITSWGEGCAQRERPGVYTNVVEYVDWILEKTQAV
T1 sequence (P03951 19-387 partner limits assumed): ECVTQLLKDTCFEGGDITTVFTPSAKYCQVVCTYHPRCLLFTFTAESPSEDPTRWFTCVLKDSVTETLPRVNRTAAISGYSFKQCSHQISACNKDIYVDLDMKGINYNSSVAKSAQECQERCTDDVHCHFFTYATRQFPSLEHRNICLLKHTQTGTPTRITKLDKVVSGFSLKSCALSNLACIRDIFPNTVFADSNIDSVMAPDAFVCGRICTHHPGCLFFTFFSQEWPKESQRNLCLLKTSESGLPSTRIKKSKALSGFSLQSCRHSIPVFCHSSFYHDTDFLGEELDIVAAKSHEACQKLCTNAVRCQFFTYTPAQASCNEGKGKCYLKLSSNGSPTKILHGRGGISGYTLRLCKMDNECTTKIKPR
In short: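 Released AMC fluorescence (360/460 nm) read after 30 min at 22 °C. The reaction was started with Boc-Glu(OBzl)-Ala-Arg-AMC (10 μM stock) after a 15 min preincubation of the enzyme (0.45 nM stock) with compound (final 50 μM to 0.00013 μM).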

Row | SMILES | aPTT (human and animal plasma) | IC50 (human factor XIa) | aPTT (human and animal plasma; hydrochloride)
1 | Cc1cc(C(=O)NC2CCCNC2=O)ccc1-c1ccc(C[C@H](NC(=O)[C@H]2CC[C@H](CN)CC2)C(=O)Nc2ccc(-c3nc(C(F)(F)C(F)(F)C(F)(F)F)n[nH]3)cc2)cc1 (stereo partly drawn) [Example 88, 4′-[(2S)-2-({[trans-4-(Aminomethyl)cyclohexyl]carbonyl}amino)-3-({4-[3-(heptafluoropropyl)-1H-1,2,4-triazol-5-yl]phenyl}amino)-3-oxopropyl]-2-methyl-N-(2-oxopiperidin-3-yl)biphenyl-4-carboxamide hydrochloride] | 0.31 µmol/L | 2.1 nM | –
2 | NC[C@H]1CC[C@H](C(=O)N[C@@H](Cc2ccc(-c3ccc(C(=O)NC4CCNCC4)c(F)c3)cc2)C(=O)Nc2ccc(-c3nn[nH]n3)cc2)CC1 [Example 45, 4′-[(2S)-2-({[trans-4-(Aminomethyl)cyclohexyl]carbonyl}amino)-3-oxo-3-{[4-(2H-tetrazol-5-yl)phenyl]amino}propyl]-3-fluoro-N-(piperidin-4-yl)biphenyl-4-carboxamide hydrochloride] | 0.14 µmol/L | 6.2 nM | –
3 | Cc1c(C(=O)NC2CCNCC2)ccc(-c2ccc(C[C@H](NC(=O)[C@H]3CC[C@H](CN)CC3)C(=O)Nc3ccc(-c4nn[nH]n4)cc3)cc2)c1Cl [Example 124, 4′-[(2S)-2-({[trans-4-(Aminomethyl)cyclohexyl]carbonyl}amino)-3-oxo-3-{[4-(2H-tetrazol-5-yl)phenyl]amino}propyl]-2-chloro-3-methyl-N-(piperidin-4-yl)biphenyl-4-carboxamide hydrochloride] | 0.1 µmol/L | 1.8 nM | –
4 | Cc1cc(C(=O)NC2CCN(C)CC2)ccc1-c1ccc(C[C@H](NC(=O)[C@H]2CC[C@H](CN)CC2)C(=O)Nc2ccc(-c3nc(C(F)(F)C(F)(F)C(=O)O)n[nH]3)cc2)cc1 [Example 100, 3-[5-(4-{[(2S)-2-({[trans-4-(Aminomethyl)cyclohexyl]carbonyl}amino)-3-{2′-methyl-4′-[(1-methylpiperidin-4-yl)carbamoyl]biphenyl-4-yl}propanoyl]amino}phenyl)-1H-1,2,4-triazol-3-yl]-2,2,3,3-tetrafluoropropanoic acid hydrochloride] | – | 2.2 nM | 0.1 µmol/L
5 | NC[C@H]1CC[C@H](C(=O)N[C@@H](Cc2ccc(-c3ccc(C(=O)N[C@H]4CCNC4)cc3Cl)cc2)C(=O)Nc2ccc(-c3nn[nH]n3)cc2)CC1 [Example 13, 4′-[(2S)-2-({[trans-4-(Aminomethyl)cyclohexyl]carbonyl}amino)-3-oxo-3-{[4-(2H-tetrazol-5-yl)phenyl]amino}propyl]-2-chloro-N-[(3S)-pyrrolidin-3-yl]biphenyl-4-carboxamide hydrochloride] | 0.44 µmol/L | 4.2 nM | –
6 | Cc1cc(C(=O)NC2C3CNCC32)ccc1-c1ccc(C[C@H](NC(=O)C2CCC(CN)CC2)C(=O)Nc2ccc(-c3nn[nH]n3)cc2)cc1 (stereo partly drawn) [Example 43, 4′-[(2S)-2-({[trans-4-(Aminomethyl)cyclohexyl]carbonyl}amino)-3-oxo-3-{[4-(2H-tetrazol-5-yl)phenyl]amino}propyl]-N-(3-azabicyclo[3.1.0]hex-6-yl)-2-methylbiphenyl-4-carboxamide hydrochloride] | 0.06 µmol/L | 3.3 nM | –
7 | Cc1cc(C(=O)N[C@H]2CC[C@H](N)CC2)ccc1-c1ccc(C[C@H](NC(=O)[C@H]2CC[C@H](CN)CC2)C(=O)Nc2ccc(-c3nn[nH]n3)cc2)cc1 [Example 34, N-(trans-4-Aminocyclohexyl)-4′-[(2S)-2-({[trans-4-(aminomethyl)cyclohexyl]carbonyl}amino)-3-oxo-3-{[4-(2H-tetrazol-5-yl)phenyl]amino}propyl]-2-methylbiphenyl-4-carboxamide hydrochloride] | 0.11 µmol/L | 1.4 nM | –
8 | Cc1cc(C(=O)N[C@H]2CC[C@H](N)CC2)ccc1-c1ccc(C[C@H](NC(=O)[C@H]2CC[C@H](CN)CC2)C(=O)Nc2ccc3[nH]c(C(F)(F)C(F)(F)F)nc3c2)cc1 [Example 79, N-(trans-4-Aminocyclohexyl)-4′-[(2S)-2-({[trans-4-(aminomethyl)cyclohexyl]carbonyl}amino)-3-oxo-3-{[2-(pentafluoroethyl)-1H-benzimidazol-5-yl]amino}propyl]-2-methylbiphenyl-4-carboxamide hydrochloride] | 0.21 µmol/L | 12 nM | –
9 | Cc1cc(C(=O)NC2CCNCC2)ccc1-c1ccc(C[C@H](NC(=O)[C@H]2CC[C@H](CN)CC2)C(=O)Nc2ccc(-c3nc(C(F)(F)C(F)(F)C(N)=O)n[nH]3)cc2)cc1 [Example 127, 4′-[(2S)-2-({[trans-4-(Aminomethyl)cyclohexyl]carbonyl}amino)-3-({4-[3-(3-amino-1,1,2,2-tetrafluoro-3-oxopropyl)-1H-1,2,4-triazol-5-yl]phenyl}amino)-3-oxopropyl]-2-methyl-N-(piperidin-4-yl)biphenyl-4-carboxamide hydrochloride] | 0.14 µmol/L | 1.5 nM | –
10 | Cc1cc(C(=O)NC2CCC3NCCC32)ccc1-c1ccc(C[C@H](NC(=O)[C@H]2CC[C@H](CN)CC2)C(=O)Nc2ccc(-c3nnc(C(F)(F)C(F)(F)C(=O)O)[nH]3)cc2)cc1 (stereo partly drawn) [Example 115, 3-{5-[4-({(2S)-2-({[trans-4-(Aminomethyl)cyclohexyl]carbonyl}amino)-3-[2′-methyl-4′-(octahydrocyclopenta[b]pyrrol-4-ylcarbamoyl)biphenyl-4-yl]propanoyl}amino)phenyl]-4H-1,2,4-triazol-3-yl}-2,2,3,3-tetrafluoropropanoic acid hydrochloride] | 0.09 µmol/L | 2.3 nM | –
11 | Cc1cc(C(=O)NC2CCNCC2)ccc1-c1ccc(C[C@H](NC(=O)[C@H]2CC[C@H](CN)CC2)C(=O)Nc2ccc(-c3nc(C(F)(F)F)n[nH]3)cc2)cc1 [Example 48, 4′-[(2S)-2-({[trans-4-(Aminomethyl)cyclohexyl]carbonyl}amino)-3-oxo-3-({4-[3-(trifluoromethyl)-1H-1,2,4-triazol-5-yl]phenyl}amino)propyl]-2-methyl-N-(piperidin-4-yl)biphenyl-4-carboxamide hydrochloride] | 0.1 µmol/L | 2.7 nM | –
12 | Cc1cc(C(=O)NC2CCC(N(C)C)CC2)ccc1-c1ccc(C[C@H](NC(=O)[C@H]2CC[C@H](CN)CC2)C(=O)Nc2ccc3[nH]c(C(F)(F)F)nc3c2)cc1 (stereo partly drawn) [Example 77, 4′-[(2S)-2-({[trans-4-(Aminomethyl)cyclohexyl]carbonyl}amino)-3-oxo-3-{[2-(trifluoromethyl)-1H-benzimidazol-5-yl]amino}propyl]-N-[4-(dimethylamino)cyclohexyl]-2-methylbiphenyl-4-carboxamide hydrochloride] | 0.22 µmol/L | 8.4 nM | –
13 | Cc1cc(C(=O)N[C@H]2CCNC2)ccc1-c1ccc(C[C@H](NC(=O)[C@H]2CC[C@H](CN)CC2)C(=O)Nc2ccc(-c3nnc(Cl)[nH]3)cc2)cc1 [Example 83, 4′-[(2S)-2-({[trans-4-(Aminomethyl)cyclohexyl]carbonyl}amino)-3-{[4-(3-chloro-4H-1,2,4-triazol-5-yl)phenyl]amino}-3-oxopropyl]-2-methyl-N-[(3S)-pyrrolidin-3-yl]biphenyl-4-carboxamide hydrochloride] | 0.09 µmol/L | 2.5 nM | –
